This test concerns the target T1, recombinant human ALX receptor (Homo sapiens, UniProt P25090).
T1 construct: expressed in transfected cells; host or cells: HEK293 (HEK293-hALXR-Gα16)
T1 sequence (P25090 1-351): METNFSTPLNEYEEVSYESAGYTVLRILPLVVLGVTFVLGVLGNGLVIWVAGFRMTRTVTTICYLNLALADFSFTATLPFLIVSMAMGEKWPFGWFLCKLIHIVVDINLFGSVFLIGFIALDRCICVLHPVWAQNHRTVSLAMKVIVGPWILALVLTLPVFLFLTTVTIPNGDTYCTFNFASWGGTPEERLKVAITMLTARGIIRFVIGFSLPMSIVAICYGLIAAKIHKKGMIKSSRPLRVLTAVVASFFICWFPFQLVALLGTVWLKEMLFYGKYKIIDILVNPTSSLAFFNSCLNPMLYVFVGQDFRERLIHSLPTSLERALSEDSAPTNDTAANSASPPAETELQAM
Kind of test: Intracellular calcium measurements (FLIPR), ALX receptor agonistic activity. The test is classed as cell-based. The conditions noted are these: HEK293-hALXR-Gα16 cells, Fluo-4 calcium signal, normalized to WKYMVm 10 nM. The method in brief:
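HEK293 cells co-expressing human ALX receptor and Gα16 were loaded with 1 μM Fluo-4 AM for 60 min at 37° C., then exposed to serially diluted compounds on FLIPR Tetra. Peak fluorescence above baseline (ex 488/em 540 nm) was normalized to 10 nM WKYMVm as high control.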

Turning to `COc1ccc(C[C@@H](NC(=O)N[C@H]2CCNC2)c2nc3ccccc3[nH]2)cc1` [Example 126, 1-((R)-1-(1H-Benzo[d]imidazol-2-yl)-2-(4-methoxyphenyl)ethyl)-3-((S)-pyrrolidin-3-yl)urea], the EC50 was determined as 601 nM.
As for `COc1ccc(C[C@@H](NC(=O)N2CCC3CNCC32)c2nc3ccccc3[nH]2)cc1` (stereo partly drawn) [Example 127, N—((R)-1-(1H-Benzo[d]imidazol-2-yl)-2-(4-methoxyphenyl)ethyl)hexahydropyrrolo[3,4-b]pyrrole-1(2H)-carboxamide], the figure is 246 nM; as for `COc1ccc(C[C@@H](NC(=O)N2CCC3NCCC32)c2nc3ccccc3[nH]2)cc1` (stereo partly drawn) [Example 128, N—((R)-1-(1H-Benzo[d]imidazol-2-yl)-2-(4-methoxyphenyl)ethyl)hexahydropyrrolo[3,2-b]pyrrole-1(2H)-carboxamide], 308 nM; as for `COc1ccc(C[C@@H](NC(=O)N2CC3CC2CN3)c2nc3ccccc3[nH]2)cc1` (stereo partly drawn) [Example 129, N—((R)-1-(1H-Benzo[d]imidazol-2-yl)-2-(4-methoxyphenyl)ethyl)-2,5-diazabicyclo[2.2.1]heptane-2-carboxamide], 279 nM.
With `COc1ccc(C[C@@H](NC(=O)N2CCN(C(=O)OC(C)(C)C)CC2)c2nc3ccccc3[nH]2)cc1` [Example 130, (R)-tert-Butyl 4-((1-(1H-benzo[d]imidazol-2-yl)-2-(4-methoxyphenyl)ethyl)carbamoyl)piperazine-1-carboxylate], the EC50 was determined as 1060 nM.
In the case of `COc1ccc(C[C@@H](NC(=O)N[C@@H]2CCCNC2)c2nc3ccccc3[nH]2)cc1` [Example 131, 1-((R)-1-(1H-Benzo[d]imidazol-2-yl)-2-(4-methoxyphenyl)ethyl)-3-((R)-piperidin-3-yl)urea] it was 15 nM; in that of `COc1ccc(C[C@@H](NC(=O)N[C@H]2CCCNC2)c2nc3ccccc3[nH]2)cc1` [Example 132, 1-((R)-1-(1H-Benzo[d]imidazol-2-yl)-2-(4-methoxyphenyl)ethyl)-3-((S)-piperidin-3-yl)urea], 23 nM; in that of `O=C(N[C@H](Cc1ccc(Br)cc1)c1nc2ccc(F)cc2[nH]1)N[C@H]1CC[C@H](O)CC1` [Example 133, 1-((R)-2-(4-Bromophenyl)-1-(6-fluoro-1H-benzo[d]imidazol-2-yl)ethyl)-3-(trans-4-hydroxycyclohexyl)urea], 3.4 nM.
As for `COc1ccc(C[C@@H](NC(=O)N2CCN(C)CC2)c2nc3ccccc3[nH]2)cc1` [Example 136, (R)—N-(1-(1H-Benzo[d]imidazol-2-yl)-2-(4-methoxyphenyl)ethyl)-4-methylpiperazine-1-carboxamide], the figure is 387 nM; as for `COc1ccc(C[C@@H](NC(=O)NCc2ccccc2OC)c2nc3ccccc3[nH]2)cc1` [Example 137], 726 nM.
In the case of `COc1ccc(C[C@@H](NC(=O)NC2CCN(C(C)=O)CC2)c2nc3ccccc3[nH]2)cc1` [Example 138, (R)-1-(1-(1H-Benzo[d]imidazol-2-yl)-2-(4-methoxyphenyl)ethyl)-3-(1-acetylpiperidin-4-yl)urea] it was 789 nM.
Take `COC(=O)N1CCC(NC(=O)N[C@H](Cc2ccc(OC)cc2)c2nc3ccccc3[nH]2)CC1` [Example 139, (R)-Methyl 4-(3-(1-(1H-benzo[d]imidazol-2-yl)-2-(4-methoxyphenyl)ethyl)ureido)piperidine-1-carboxylate]: the EC50 is 414 nM.
In the case of `COc1ccc(C[C@@H](NC(=O)N[C@@H]2CCCN(C(C)=O)C2)c2nc3ccccc3[nH]2)cc1` [Example 140, 1-((R)-1-(1H-Benzo[d]imidazol-2-yl)-2-(4-methoxyphenyl)ethyl)-3-((R)-1-acetylpiperidin-3-yl)urea] it was 62 nM; in that of `O=C(NC(Cc1ccc(OC(F)(F)F)cc1)c1nc2ccccc2[nH]1)NC1CN2CCC1CC2` (stereo not shown) [Example 141, 1-(1-(1H-Benzo[d]imidazol-2-yl)-2-(4-(trifluoromethoxy)phenyl)ethyl)-3-(quinuclidin-3-yl)urea], 834 nM; in that of `COc1ccc(C[C@@H](NC(=O)N[C@@H]2CCN(C(C)=O)C2)c2nc3ccccc3[nH]2)cc1` [Example 142, 1-((R)-1-(1H-Benzo[d]imidazol-2-yl)-2-(4-methoxyphenyl)ethyl)-3-((R)-1-acetylpyrrolidin-3-yl)urea], 306 nM.
As for `COc1ccc(C[C@@H](NC(=O)NC2CCN(S(C)(=O)=O)CC2)c2nc3ccccc3[nH]2)cc1` [Example 143, (R)-1-(1-(1H-Benzo[d]imidazol-2-yl)-2-(4-methoxyphenyl)ethyl)-3-(1-(methylsulfonyl)piperidin-4-yl)urea], the figure is 108 nM; as for `COc1ccc(C[C@@H](NC(=O)NCCN2CCN(C(=O)OC(C)(C)C)CC2)c2nc3ccccc3[nH]2)cc1` [Example 144, (R)-tert-Butyl 4-(2-(3-(1-(1H-benzo[d]imidazol-2-yl)-2-(4-methoxyphenyl)ethyl)ureido)ethyl)piperazine-1-carboxylate], 947 nM.
In the case of `COc1ccc(C[C@@H](NC(=O)NCC2CCN(C(=O)OC(C)(C)C)CC2)c2nc3ccccc3[nH]2)cc1` [Example 146, (R)-tert-Butyl 4-((3-(1-(1H-benzo[d]imidazol-2-yl)-2-(4-methoxyphenyl)ethyl)ureido)methyl)piperidine-1-carboxylate] it was 512 nM; in that of `COc1ccc(C[C@@H](NC(=O)NCC2CCN(C)CC2)c2nc3ccccc3[nH]2)cc1` [Example 147, (R)-1-(1-(1H-Benzo[d]imidazol-2-yl)-2-(4-methoxyphenyl)ethyl)-3-((1-methylpiperidin-4-yl)methyl)urea], 493 nM.
`COc1ccc(C[C@@H](NC(=O)N[C@H]2CC[C@H](O)CC2)c2nc3cc([N+](=O)[O-])ccc3[nH]2)cc1` [Example 148, 1-(trans-4-Hydroxycyclohexyl)-3-((R)-2-(4-methoxyphenyl)-1-(5-nitro-1H-benzo[d]imidazol-2-yl)ethyl)urea]: the EC50 worked out at 18 nM.
As for `COc1ccc(C[C@@H](NC(=O)NCC2CCNCC2)c2nc3ccccc3[nH]2)cc1` [Example 149, (R)-1-(1-(1H-Benzo[d]imidazol-2-yl)-2-(4-methoxyphenyl)ethyl)-3-(piperidin-4-ylmethyl)urea], the figure is 168 nM; as for `COc1ccc(C[C@@H](NC(=O)NCCN2CCNCC2)c2nc3ccccc3[nH]2)cc1` [Example 150, (R)-1-(1-(1H-Benzo[d]imidazol-2-yl)-2-(4-methoxyphenyl)ethyl)-3-(2-(piperazin-1-yl)ethyl)urea], 209 nM; as for `COc1ccc(C[C@@H](NC(=O)NCCN2CCN(C)CC2)c2nc3ccccc3[nH]2)cc1` [Example 151, (R)-1-(1-(1H-Benzo[d]imidazol-2-yl)-2-(4-methoxyphenyl)ethyl)-3-(2-(4-methylpiperazin-1-yl)ethyl)urea], 572 nM.
Consider `COc1ccc(C[C@@H](NC(=O)N[C@H]2CC[C@H](O)CC2)c2nc3ccc(C#N)cc3[nH]2)cc1` [Example 152, 1-((R)-1-(6-Cyano-1H-benzo[d]imidazol-2-yl)-2-(4-methoxyphenyl)ethyl)-3-(trans-4-hydroxycyclohexyl)urea], for which the EC50 stood at 6.2 nM.
`COc1ccc(C[C@@H](NC(=O)NC2CC(C)(C)NC(C)(C)C2)c2nc3ccc(C#N)cc3[nH]2)cc1` [Example 153, (R)-1-(1-(6-Cyano-1H-benzo[d]imidazol-2-yl)-2-(4-methoxyphenyl)ethyl)-3-(2,2,6,6-tetramethylpiperidin-4-yl)urea]: the EC50 came to 8.7 nM.
In the case of `COc1ccc(C[C@@H](NC(=O)NC2CN3CCC2CC3)c2nc3ccc(C#N)cc3[nH]2)cc1` (stereo partly drawn) [Example 154, 1-((R)-1-(6-Cyano-1H-benzo[d]imidazol-2-yl)-2-(4-methoxyphenyl)ethyl)-3-(quinuclidin-3-yl)urea] it was 6.8 nM.
As for `COc1ccc(C[C@@H](NC(=O)NCCC2CCN(C(=O)OC(C)(C)C)CC2)c2nc3ccccc3[nH]2)cc1` [Example 155, (R)-tert-Butyl 4-(2-(3-(1-(1H-benzo[d]imidazol-2-yl)-2-(4-methoxyphenyl)ethyl)ureido)ethyl)piperidine-1-carboxylate], the figure is 489 nM; as for `COc1ccc(C[C@@H](NC(=O)NCCC2CCNCC2)c2nc3ccccc3[nH]2)cc1` [Example 156, (R)-1-(1-(1H-Benzo[d]imidazol-2-yl)-2-(4-methoxyphenyl)ethyl)-3-(2-(piperidin-4-yl)ethyl)urea], 94 nM; as for `COc1ccc(C[C@@H](NC(=O)NC2CCN(S(C)(=O)=O)C2)c2nc3ccccc3[nH]2)cc1` (stereo partly drawn) [Example 157, 1-((R)-1-(1H-Benzo[d]imidazol-2-yl)-2-(4-methoxyphenyl)ethyl)-3-(1-(methylsulfonyl)pyrrolidin-3-yl)urea], 187 nM.
As for `COC(=O)N1CCC(NC(=O)N[C@H](Cc2ccc(OC)cc2)c2nc3ccccc3[nH]2)C1` (stereo partly drawn) [Example 158, Methyl 3-(3-((R)-1-(1H-benzo[d]imidazol-2-yl)-2-(4-methoxyphenyl)ethyl)ureido)pyrrolidine-1-carboxylate], the figure is 158 nM.
`COc1ccc(C[C@@H](NC(=O)NCCC2CCN(C(C)=O)CC2)c2nc3ccccc3[nH]2)cc1` [Example 159, (R)-1-(1-(1H-Benzo[d]imidazol-2-yl)-2-(4-methoxyphenyl)ethyl)-3-(2-(1-acetylpiperidin-4-yl)ethyl)urea]: the EC50 worked out at 876 nM.

For orientation: EC50 means the concentration that produces a half-maximal response.
